Test results as given in patent publication US10421761B2, “Compounds for kinase modulation, and indications therefor” (Plexxikon Inc., priority 2013, dated 2019).

Test system: B9 cells
Conditions: Repl. 2; B9 cells

Compound: CCCS(=O)(=O)Nc1ccc(F)c(C(=O)c2c[nH]c3ncc(-c4ccc(Cl)cc4)cc23)c1F [vemurafenib]
- probe 1430623_s_at response, Obfc2a (oligonucleotide/oligosaccharide-binding fold containing 2A): 1.88
- probe 1430700_a_at response, Pla2g7 (phospholipase A2, group VII (platelet-activating factor acetylhydrolase, plasma)): 2.18
- probe 1431416_a_at response, Jam2 (junction adhesion molecule 2): 1.93
- probe 1431422_a_at response, Dusp14 (dual specificity phosphatase 14): 1.93
- probe 1431611_a_at response, Cadm1 (cell adhesion molecule 1): 2.31
- probe 1431688_at response, LOC73899 (hypothetical LOC73899): 2.41
- probe 1431691_a_at response, Rab31 (RAB31, member RAS oncogene family): 2.04
- probe 1433909_at response, Syt17 (synaptotagmin XVII): 2.17
- probe 1434059_at response, B230312A22Rik (RIKEN cDNA B230312A22 gene): 2.10
- probe 1434092_at response, Atg9b (ATG9 autophagy related 9 homolog B (S. cerevisiae)): 1.89
- probe 1434109_at response, Sh3bgrl2 (SH3 domain binding glutamic acid-rich protein like 2): 2.33
- probe 1434252_at response, Tmcc3 (transmembrane and coiled coil domains 3): 1.95
- probe 1434601_at response, Amigo2 (adhesion molecule with Ig like domain 2): 1.89
- probe 1434957_at response, Cdon (cell adhesion molecule-related/down-regulated by oncogenes): 0.46
- probe 1435066_at response, Pitpnc1 (phosphatidylinositol transfer protein, cytoplasmic 1): 2.32
- probe 1435176_a_at response, Id2 (inhibitor of DNA binding 2): 0.46
- probe 1435330_at response, Pyhin1 (pyrin and HIN domain family, member 1): 2.38
- probe 1435331_at response, Pyhin1 (pyrin and HIN domain family, member 1): 3.71
- probe 1435460_at response, Prkg2 (protein kinase, cGMP-dependent, type II): 1.96
- probe 1435695_a_at response, Ggct (gamma-glutamyl cyclotransferase): 2.19
- probe 1436100_at response, Sh2d5 (SH2 domain containing 5): 2.35
- probe 1436329_at response, Egr3 (early growth response 3): 2.77
- probe 1436584_at response, Spry2 (sprouty homolog 2 (Drosophila)): 3.54
- probe 1436659_at response, Dclk1 (doublecortin-like kinase 1): 2.37
- probe 1436917_s_at response, Gpsm1 (G-protein signalling modulator 1 (AGS3-like, C. elegans)): 1.89
- probe 1436944_x_at response, Pisd /// Pisd-ps1 ///Pisd-ps3 (phosphatidylserine decarboxylase /// phosphatidylserine decarboxylase, pseudogene 1 /// phosphatidylserine decarboxylase, pseudogene 3): 0.48
- probe 1437092_at response, Clip4 (CAP-GLY domain containing linker protein family, member 4): 2.13
- probe 1437100_x_at response, Pim3 (proviral integration site 3): 2.05
- probe 1437199_at response: 4.31
- probe 1437271_at response, Clcf1 (cardiotrophin-like cytokine factor 1): 1.96
- probe 1437486_at response, Gprc5a (G protein-coupled receptor, family C, group 5, member A): 2.08
- probe 1437982_x_at response, Cox15 (COX15 homolog, cytochrome c oxidase assembly protein (yeast)): 0.45
- probe 1438038_at response, 4930402H24Rik (RIKEN cDNA 4930402H24 gene): 1.93
- probe 1438664_at response, Prkar2b (protein kinase, cAMP dependent regulatory, type II beta): 0.49
- probe 1438699_at response, Srd5a1 (steroid 5 alpha-reductase 1): 1.87
- probe 1439016_x_at response, Sprr2a (small proline-rich protein 2A): 0.42
- probe 1439109_at response, Ccdc68 (coiled-coil domain containing 68): 0.50
- probe 1439434_x_at response, Sh2d5 (SH2 domain containing 5): 1.91
- probe 1439797_at response, Ppard (peroxisome proliferator activator receptor delta): 2.32
- probe 1439878_at response, Ivl (involucrin): 2.90
- probe 1440169_x_at response, Ifnar2 (interferon (alpha and beta) receptor 2): 0.53
- probe 1440559_at response, Hmga2-ps1 (high mobility group AT-hook 2, pseudogene 1): 2.95
- probe 1441315_s_at response, Slc19a2 (solute carrier family 19 (thiamine transporter), member 2): 2.18
- probe 1441917_s_at response, Tmem40 (transmembrane protein 40): 2.11
- probe 1442350_at response: 2.13
- probe 1442363_at response, 1110012J17Rik (RIKEN cDNA 1110012J17 gene): 1.96
- probe 1443536_at response, Slc7a11 (solute carrier family 7 (cationic amino acid transporter, y+ system), member 11): 0.40
- probe 1445758_at response: 0.52
- probe 1446791_at response, Pi15 (peptidase inhibitor 15): 0.48
- probe 1447661_at response: 0.43
- probe 1447845_s_at response, Vnn1 (vanin 1): 0.46
- probe 1448364_at response, Ccng2 (cyclin G2): 2.01
- probe 1448532_at response, Prl8a9 (prolactin family8, subfamily a, member 9): 2.67
- probe 1448562_at response, Upp1 (uridine phosphorylase 1): 2.99
- probe 1448613_at response, Ecm1 (extracellular matrix protein 1): 1.89
- probe 1448617_at response, Cd53 (CD53 antigen): 1.99
- probe 1448810_at response, Gne (glucosamine): 2.16
- probe 1448855_at response, Rassf1 (Ras association (RalGDS/AF-6) domain family member 1): 2.05
- probe 1448894_at response, Akr1b8 (aldo-keto reductase family 1, member B8): 1.99
- probe 1448978_at response, Ngef (neuronal guanine nucleotide exchange factor): 3.24
- probe 1449038_at response, Hsd11b1 (hydroxysteroid 11-beta dehydrogenase 1): 2.51
- probe 1449125_at response, Tnfaip8l1 (tumor necrosis factor, alpha-induced protein 8-like 1): 2.10
- probe 1449133_at response, Sprr1a (small proline-rich protein 1A): 2.78
- probe 1449268_at response, Gfpt1 (glutamine fructose-6-phosphate transaminase 1): 2.36
- probe 1449297_at response, Casp12 (caspase 12): 0.47
- probe 1449334_at response, Timp3 (tissue inhibitor of metalloproteinase 3): 0.42
- probe 1449367_at response, Trex2 (three prime repair exonuclease 2): 4.68
- probe 1449408_at response, Jam2 (junction adhesion molecule 2): 2.08
- probe 1449545_at response, Fgf18 (fibroblast growth factor 18): 3.38
- probe 1449965_at response, Mcpt8 (mast cell protease 8): 2.61
- probe 1450241_a_at response, Evi2a (ecotropic viral integration site 2a): 4.27
- probe 1450262_at response, Clcf1 (cardiotrophin-like cytokine factor 1): 2.12
- probe 1450276_a_at response, Scin (scinderin): 2.63
- probe 1450376_at response, Mxi1 (Max interacting protein 1): 2.00
- probe 1450430_at response, Mrc1 (mannose receptor, C type 1): 2.97
- probe 1450501_at response, Itga2 (integrin alpha 2): 2.48
- probe 1450791_at response, Nppb (natriuretic peptide precursor type B): 4.39
- probe 1450976_at response, Ndrg1 (N-myc downstream regulated gene 1): 2.47
- probe 1451006_at response, Xdh (xanthine dehydrogenase): 0.39
- probe 1451308_at response, Elovl4 (elongation of very long chain fatty acids (FEN1/Elo2, SUR4/Elo3, yeast)-like 4): 2.21
- probe 1451446_at response, Antxr1 (anthrax toxin receptor 1): 0.43
- probe 1451501_a_at response, Ghr (growth hormone receptor): 2.25
- probe 1451529_at response, Sgtb (small glutamine-rich tetratricopeptide repeat (TPR)-containing, beta): 2.47
- probe 1451798_at response, Il1rn (interleukin 1 receptor antagonist): 2.76
- probe 1452058_a_at response, Rnfl1 (ring finger protein 11): 2.02
- probe 1452087_at response, Epsti1 (epithelial stromal interaction 1 (breast)): 2.32
- probe 1452203_at response, Obfc2a (oligonucleotide/oligosaccharide-binding fold containing 2A): 1.90
- probe 1452352_at response, Ctla2b (cytotoxic T lymphocyte-associated protein 2 beta): 2.30
- probe 1452521_a_at response, Plaur (plasminogen activator, urokinase receptor): 2.09
- probe 1453055_at response, Sema6d (sema domain, transmembrane domain (TM), and cytoplasmic domain, (semaphorin) 6D): 4.08
- probe 1453278_a_at response, Clip4 (CAP-GLY domain containing linker protein family, member 4): 1.99
- probe 1453345_at response, Nipal1 (NIPA-like domain containing 1): 3.92
- probe 1454048_a_at response, 4931408A02Rik /// LOC630876 (RIKEN cDNA 4931408A02 gene /// similar to Protein C21orf63 homolog precursor): 0.46
- probe 1454254_s_at response, 1600029D21Rik (RIKEN cDNA 1600029D21 gene): 2.18
- probe 1454649_at response, Srd5a1 (steroid 5 alpha-reductase 1): 2.08
- probe 1454699_at response, LOC100047324 /// Sesn1 (similar to Sesn1 protein /// sestrin 1): 0.37
- probe 1454710_at response, Spink2 (serine peptidase inhibitor, Kazal type 2): 2.03
- probe 1454780_at response, Galntl4 (UDP-N-acetyl-alpha-D-galactosamine:polypeptide N-acetylgalactosaminyltransferase-like 4): 0.44
- probe 1454877_at response, Sertad4 (SERTA domain containing 4): 0.42
- probe 1455104_at response, Mxd1 (MAX dimerization protein 1): 2.85
- probe 1455241_at response, BC037703 (cDNA sequence BC037703): 0.50
- probe 1455299_at response, Vgll3 (vestigial like 3 (Drosophila)): 0.44
- probe 1455981_at response, Gm11263 /// Gm12242 /// Gm13654 /// Gm14138 /// Gm16406 /// Gm4796 /// Gm6476 /// Gm9143 /// LOC100043734 /// LOC236932 /// LOC623245 /// LOC639593 /// Rps6: 0.46
- probe 1456150_at response, Jhdm1d (jumonji C domain-containing histone demethylase 1 homolog D (S. cerevisiae)): 1.99
- probe 1456174_x_at response, Ndrg1 (N-myc downstream regulated gene 1): 2.00
- probe 1456248_at response, Lce3f /// LOC630971 (late cornified envelope 3F /// hypothetical protein LOC630971): 2.45
- probe 1456284_at response, Tmem171 (transmembrane protein 171): 1.95
- probe 1456321_at response, Nipal1 (NIPA-like domain containing 1): 2.99
- probe 1456725_x_at response, Ezr (ezrin): 0.49
- probe 1456874_at response, Flrt2 (fibronectin leucine rich transmembrane protein 2): 0.54
- probe 1457042_at response, AI256396 (EST AI256396): 0.52
- probe 1457568_at response, Hnrnpd (heterogeneous nuclear ribonucleoprotein D): 0.50
- probe 1457666_s_at response, Ifi202b (interferon activated gene 202B): 3.89
- probe 1460220_a_at response, Csf1 (colony stimulating factor 1 (macrophage)): 0.38
- probe 1460302_at response, Thbs1 (thrombospondin 1): 0.50
- probe 1460472_at response, Cdk3 (cyclin-dependent kinase 3): 1.99
- probe 1460521_a_at response, Obfc2a (oligonucleotide/oligosaccharide-binding fold containing 2A): 2.32
- probe 1460695_a_at response, 2010111I01Rik (RIKEN cDNA 2010111I01 gene): 0.48
